Patent publication US5736556A, “Tropane-2-aldoxime derivatives as nevro transmitter reuptake inhibitors” (NeuroSearch A/S, priority 1994, dated 1998)
Structures can show the parent of a compound that is named as a salt.

Tests used:
dopamine transporter [1] = target: T1, dopamine transporter (Rattus norvegicus, UniProt P23977); assay: In vitro inhibition of ^3 H-WIN 35428 binding (corpus striatum); set-up: species or system rat (male Wistar); conditions: rat corpus striatum, ^3 H-WIN 35428 1 nM, 60 min at 2° C.; read-out: in vitro IC50
T1 construct: Corpus striatum from male Wistar rats (150-200 g) is homogenized; from tissue; host or cells: corpus striatum of male Wistar rats
T1 sequence (P23977 whole entry): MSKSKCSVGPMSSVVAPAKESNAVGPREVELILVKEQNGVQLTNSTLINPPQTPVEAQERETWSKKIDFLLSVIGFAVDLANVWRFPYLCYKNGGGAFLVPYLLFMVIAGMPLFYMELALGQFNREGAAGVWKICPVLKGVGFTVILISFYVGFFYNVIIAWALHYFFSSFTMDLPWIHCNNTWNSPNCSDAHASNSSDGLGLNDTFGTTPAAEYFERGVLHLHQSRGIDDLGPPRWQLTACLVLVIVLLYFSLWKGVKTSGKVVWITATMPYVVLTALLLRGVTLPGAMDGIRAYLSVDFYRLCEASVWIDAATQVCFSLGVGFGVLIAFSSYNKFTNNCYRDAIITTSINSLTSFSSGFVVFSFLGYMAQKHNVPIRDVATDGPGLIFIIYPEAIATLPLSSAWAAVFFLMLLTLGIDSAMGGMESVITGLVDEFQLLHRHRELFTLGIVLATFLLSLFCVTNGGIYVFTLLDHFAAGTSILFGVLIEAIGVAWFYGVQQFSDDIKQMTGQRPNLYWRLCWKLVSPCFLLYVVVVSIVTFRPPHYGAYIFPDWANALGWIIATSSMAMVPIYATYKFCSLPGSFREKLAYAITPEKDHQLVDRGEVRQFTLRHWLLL
Excerpt: The compounds of the present invention have been tested for their ability to bind to the dopamine transporter in the following tests for in vitro and in vivo inhibition of ^3 H-WIN 35428.
In vitro inhibition of ^3 H-WIN 35428 binding
Dopamine transporters/uptake sites on nerve terminals presumably function to terminate neuronal signaling by removing dopamine from the synaptic cleft. The activity or presence of the dopamine transporter integral protein can be measured in vitro with synaptosomal uptake of ^3 H-dopamine or membrane binding assays with ^3 H-ligands known to bind to the transporter.
Numerous ligands of several structural types have been reported to bind at the dopamine uptake site, but it remains questionable whether their binding sites are identical to that of cocaine.
Tissue preparation: Preparations are performed at 0°-4° C. unless otherwise indicated. Corpus striatum from male Wistar rats (150-200 g) is homogenized for 5-10 sec in 10 ml NaH2 PO4 (50 mM, pH 7.4) using an Ultra-Turrax homogenizer. The suspension is centrifuged at 27,000×g for 15 min. The supernatant is discarded and the pellet is resuspended in 50 mM NaH2 PO4, pH 7.4 (1000 ml per g of original tissue) and used for binding assays.
Assay: Aliquots of 0.5 ml tissue are added to […] of ^3 H-WIN 35428 (1 nM, final concentration), mixed and incubated for 60 min at 2° C. Non-specific binding is determined using cocaine ([…], final concentration). After incubation the samples are added 5 ml of ice-cold buffer and poured directly onto Whatman GF/C glass fibre filters under suction and immediately washed with 5 ml ice-cold buffer. The amount of radioactivity on the filters is determined by conventional liquid scintillation counting. Specific binding is total binding minus non-specific binding.
25-75% inhibition of specific binding must be obtained, before calculation of an IC50. The test value is given as IC50 (the concentration (μM) of the test substance which inhibits the specific binding of ^3 H-WIN 35428 by 50%).

[2] = tested on: immobility time of mice suspended by the tail; assay: Tail Suspension; assay type: in vivo, mice (female NMRI); conditions: Mus musculus, 0.5 h, oral, 30 min before test, dose reducing the immobility to 100 sec
Experimental: A decrease in the immobility time by mice suspended in their tail is seen after systemic administration of central stimulants and by antidepressants (Steru, L., Chermat, R., Thierry, B. & Simon, P. (1985) The tail suspension test: A new method for screening antidepressants in mice. Psychopharmacology 85:367-370.).
Female NMRI mice (20-25 g) habituated to the room (12 hours light/dark) for at least 16 hours and housed 25 per cage are used. The mice are suspended by the tail with adhesive tape to a rod 30 cm above the lab. bench 30 min after an oral administation of vehicle or drug. For the next 6 min the accumulated duration of immobility defined as no movements by the body or extremities (however head movements are not defined as movements) are noted, Six mice per dose are used.
Saline or vehicle treated mice have immobility time scores between 160-180 sec in average. An ED50 -value is calculated by graphical interpolation from at least 3 doses as the dose reducing the immobility to 100 sec.

dopamine transporter [3] = target: dopamine transporter (Mus musculus, UniProt Q61327); assay: In vivo inhibition of ^3 H-WIN 35428 binding (striatum); set-up: from tissue; host or cells: striatum of living female NMRI mice; species or system mice (female NMRI); conditions: ip, mice, inhibition of specific ^3 H-WIN 35428 binding in striatum
Sequence of dopamine transporter (Mus musculus, UniProt Q61327) (Q61327 whole entry): as the sequence (P23977 whole entry) above, with S21P, A57V, A194S, H600R, L619V counted along it
Experimental: All test substances used are solutions or suspensions prepared in 10% TWEEN 80. Groups of three female NMRI mice (25 g) are injected i.p. with the test substance. […] Tissues are weighed and dissolved for 36 h with 1 ml 2% sodium-laurylsulfat. The solubilized tissue is then added 2 ml of scintillation cocktail, and the amount of radioactivity per mg of tissue is counted by conventional liquid scintillation counting. Groups of untreated mice serves as controls.
The ED50 value is determined from dose response curves.
ED50 =(administered dose, mg/kg)×1/(C0 /Cx -1), where C0 is specific binding in controls and Cx is the specific binding in mice treated with test substance.

## CON=C[C@@H]1[C@@H](c2ccc(Cl)c(Cl)c2)C[C@@H]2CC[C@H]1N2C [(1R,2R,3S)-3-(3,4-dichlorophenyl)-tropane-2-O-methyl-aldoxime, H2 SO4]
Dopamine transporter [1]
  IC50: 3 nM
[2]
  ED50: 0.1 mg/kg
Dopamine transporter [3]
  ED50: 0.9 mg/kg

## CON=C[C@@H]1[C@@H](c2ccc(Cl)c(Cl)c2)C[C@@H]2CC[C@H]1N2 [(1R,2R,3S)-N-Normethyl-3-(3,4-dichlorophenyl)tropane-2-O-methyl-aldoxime, hydrochloride]
Dopamine transporter [1]
  IC50: 6 nM
[2]
  ED50: 0.95 mg/kg
Dopamine transporter [3]
  ED50: 1.4 mg/kg
